From PMC7587962, “Evaluation of Cytotoxicity and α-Glucosidase Inhibitory Activity of Amide and Polyamino-Derivatives of Lupane Triterpenoids” (Molecules, 2020)
Read-outs that look alike come from different tables or passages of the source.

Tests used:
NCI-H460 = test: NCI-60 SRB screen: non-small cell lung cancer NCI-H460; format: cell-based; details: Homo sapiens, 48 h, NCI-H460
NCI/ADR-RES = test: NCI-60 SRB screen: ovarian cancer NCI/ADR-RES; format: cell-based, human
Colon Cancer subpanel = test: NCI-60 screen, subpanel Colon Cancer
RXF 393 = test: NCI-60 SRB screen: renal cancer RXF 393; format: cell-based, human; details: RXF 393
[1] = system: 60 human tumor cell lines; test: cells
MDA-MB-435 = test: NCI-60 SRB screen: melanoma MDA-MB-435; format: cell-based, human; details: MDA-MB-435
Renal Cancer subpanel = test: NCI-60 screen, subpanel Renal Cancer
EKVX = test: NCI-60 SRB screen: non-small cell lung cancer EKVX; format: cell-based, human
CAKI-1 = test: NCI-60 SRB screen: renal cancer CAKI-1; format: cell-based, human; details: CAKI-1
HL-60(TB) = test: NCI-60 SRB screen: leukemia HL-60(TB); format: cell-based; details: Homo sapiens, 48 h, HL-60(TB)
HT29 = test: NCI-60 SRB screen: colon cancer HT29; format: cell-based; details: Homo sapiens, HT29
Leukemia subpanel = test: NCI-60 screen, subpanel Leukemia
PC-3 = test: NCI-60 SRB screen: prostate cancer PC-3; format: cell-based, human; details: PC-3
NSCL cancer subpanel = test: NCI-60 screen, subpanel NSCL cancer
NCI-H322M = test: NCI-60 SRB screen: non-small cell lung cancer NCI-H322M; format: cell-based, human
HOP-92 = test: NCI-60 SRB screen: non-small cell lung cancer HOP-92; format: cell-based, human; details: HOP-92
OVCAR-5 = test: NCI-60 SRB screen: ovarian cancer OVCAR-5; format: cell-based, human; details: OVCAR-5
ACHN = test: NCI-60 SRB screen: renal cancer ACHN; format: cell-based, human
BT-549 = test: NCI-60 SRB screen: breast cancer BT-549; format: cell-based, human; details: BT-549
Melanoma subpanel = test: NCI-60 screen, subpanel Melanoma
MOLT-4 = test: NCI-60 SRB screen: leukemia MOLT-4; format: cell-based; details: Homo sapiens, 48 h, MOLT-4
Breast cancer subpanel = test: NCI-60 screen, subpanel Breast cancer
MDA-MB-231/ATCC = test: NCI-60 SRB screen: breast cancer MDA-MB-231/ATCC; format: cell-based; details: Homo sapiens, 48 h
OVCAR-3 = test: NCI-60 SRB screen: ovarian cancer OVCAR-3; format: cell-based, human; details: OVCAR-3
KM12 = test: NCI-60 SRB screen: colon cancer KM12; format: cell-based, human; details: KM12
NCI-H23 = test: NCI-60 SRB screen: non-small cell lung cancer NCI-H23; format: cell-based, human; details: NCI-H23
SF-539 = test: NCI-60 SRB screen: CNS cancer SF-539; format: cell-based, human; details: SF-539
T-47D = test: NCI-60 SRB screen: breast cancer T-47D; format: cell-based, human; details: T-47D
UACC-257 = test: NCI-60 SRB screen: melanoma UACC-257; format: cell-based, human; details: UACC-257
A498 = test: NCI-60 SRB screen: renal cancer A498; format: cell-based, human; details: A498
SK-OV-3 = test: NCI-60 SRB screen: ovarian cancer SK-OV-3; format: cell-based, human; details: SK-OV-3
Prostate cancer subpanel = test: NCI-60 screen, subpanel Prostate cancer
COLO 205 = test: NCI-60 SRB screen: colon cancer COLO 205; format: cell-based, human; details: COLO 205
MALME-3M = test: NCI-60 SRB screen: melanoma MALME-3M; format: cell-based, human; details: MALME-3M
K-562 = test: NCI-60 SRB screen: leukemia K-562; format: cell-based, human; details: K-562
[2] = single dose 10 µM, read-out: Percentage Cell Growth
[3] = five concentrations, SRB, read-out: GI50
[4] = Homo sapiens, five concentrations, 48 h, SRB, read-out: GI50

C=C(C)[C@@H]1CC[C@]2(C(=O)NCCNCCNCCN)CC[C@]3(C)[C@H](CC[C@@H]4[C@@]5(C)CC[C@H](O)C(C)(C)[C@@H]5CC[C@]43C)[C@@H]12 [Compound 6]
activity at 10 µM (NCI-H460; [2]): -100% | GI50 (NCI-H460; [3]): 14.7 µM | GI50 (NCI/ADR-RES; [4]): 18.9 µM | Percentage Cell Growth (NCI/ADR-RES; single dose 10 µM): −13.05% | MID b, average sensitivity of all cell line of particular subpanel (Colon Cancer subpanel): 11.72 µM | Selectivity, ratio MID a: MID b (Colon Cancer subpanel): 1.04 | GI50 (RXF 393; [4]): 13.2 µM | Percentage Cell Growth (RXF 393; single dose 10 µM): −82.88% | GI50 ([1]; read-out: GI50 ranges against all panels of NCI60): 2.95 to 20.1 µM | GI50 ([1]; read-out: MID a, average sensitivity of all cell line (GI50-MID)): 12.2 µM | GI50 (MDA-MB-435; [4]): 13.4 µM | Percentage Cell Growth (MDA-MB-435; single dose 10 µM): −89.21% | MID b, average sensitivity of all cell line of particular subpanel (Renal Cancer subpanel): 13.02 µM | Selectivity, ratio MID a: MID b (Renal Cancer subpanel): 0.93 | GI50 (EKVX; [4]): 10.5 µM | Percentage Cell Growth (EKVX; single dose 10 µM): −11.36% | Percentage Cell Growth (CAKI-1; single dose 10 µM): −93.59% | GI50 (CAKI-1; [4]): 5.92 µM | activity at 10 µM (HL-60(TB); [2]): -24% | GI50 (HL-60(TB); [3]): 7.33 µM | activity at 10 µM (HT29; HT-29, 48 h, single dose 10 µM, read-out: Percentage Cell Growth): -39.6% | GI50 (HT29; HT-29, five concentrations, 48 h, SRB, read-out: GI50): 14.6 µM | MID b, average sensitivity of all cell line of particular subpanel (Leukemia subpanel): 6.64 µM | Selectivity, ratio MID a: MID b (Leukemia subpanel): 1.83 | GI50 (PC-3; [4]): 2.95 µM | Percentage Cell Growth (PC-3; single dose 10 µM): 1.07% | MID b, average sensitivity of all cell line of particular subpanel (NSCL cancer subpanel): 11.88 µM | Selectivity, ratio MID a: MID b (NSCL cancer subpanel): 1.02 | GI50 (NCI-H322M; [4]): 15.1 µM | Percentage Cell Growth (NCI-H322M; single dose 10 µM): −83.84% | Percentage Cell Growth (HOP-92; single dose 10 µM): −65.35% | GI50 (HOP-92; [4]): 4.61 µM | GI50 (OVCAR-5; [4]): 18.6 µM | Percentage Cell Growth (OVCAR-5; single dose 10 µM): −83.37% | GI50 (ACHN; [4]): 12 µM | Percentage Cell Growth (ACHN; single dose 10 µM): −100.00% | Percentage Cell Growth (BT-549; single dose 10 µM): −51.94% | GI50 (BT-549; [4]): 15 µM | MID b, average sensitivity of all cell line of particular subpanel (Melanoma subpanel): 13.58 µM | Selectivity, ratio MID a: MID b (Melanoma subpanel): 0.89 | activity at 10 µM (MOLT-4; [2]): 1.18% | GI50 (MOLT-4; [3]): 11.5 µM | MID b, average sensitivity of all cell line of particular subpanel (Breast cancer subpanel): 13.86 µM | Selectivity, ratio MID a: MID b (Breast cancer subpanel): 0.88 | activity at 10 µM (MDA-MB-231/ATCC; MDA-MB-231/ATCC, single dose 10 µM, read-out: Percentage Cell Growth): -56.9% | GI50 (MDA-MB-231/ATCC; MDA-MB-231, MDA-MB-31/ATCC, five concentrations, SRB, read-out: GI50): 15.1 µM | GI50 (OVCAR-3; [4]): 12.2 µM | Percentage Cell Growth (OVCAR-3; single dose 10 µM): −66.02% | GI50 (KM12; [4]): 6.81 µM | Percentage Cell Growth (KM12; single dose 10 µM): −52.23% | GI50 (NCI-H23; [4]): 14.7 µM | Percentage Cell Growth (NCI-H23; single dose 10 µM): −51.70% | GI50 (SF-539; [4]): 11.1 µM | Percentage Cell Growth (SF-539; single dose 10 µM): −100.00% | GI50 (T-47D; Homo sapiens, T47D, five concentrations, 48 h, SRB, read-out: GI50): 10.9 µM | Percentage Cell Growth (T-47D; single dose 10 µM): −32.56% | GI50 (UACC-257; [4]): 15.1 µM | Percentage Cell Growth (UACC-257; single dose 10 µM): −39.58% | Percentage Cell Growth (A498; single dose 10 µM): −32.64% | GI50 (A498; [4]): 19.6 µM | GI50 (SK-OV-3; [4]): 17.5 µM | Percentage Cell Growth (SK-OV-3; single dose 10 µM): −14.17% | MID b, average sensitivity of all cell line of particular subpanel (Prostate cancer subpanel): 8.53 µM | Selectivity, ratio MID a: MID b (Prostate cancer subpanel): 1.42 | Percentage Cell Growth (COLO 205; single dose 10 µM): −19.47% | GI50 (COLO 205; [4]): 15.9 µM | GI50 (MALME-3M; [4]): 14.6 µM | Percentage Cell Growth (MALME-3M; single dose 10 µM): −100.00% | GI50 (K-562; Homo sapiens, K562, five concentrations, 48 h, SRB, read-out: GI50): 6.9 µM | Percentage Cell Growth (K-562; single dose 10 µM): −15.78%
